Experimental data as given in patent US8034811B2, “Hydroxamic acid esters and pharmaceutical use thereof” (Leo Pharma A/S, priority 2003, dated 2011).

target: T1, human intracellular domain of KDR (VEGF Receptor-2) (Homo sapiens, UniProt P35968); assay: In vitro KDR kinase assay; format: biochemical; settings: IC50 as molar concentration; GST-KDR-cyt, substrate phospholipase Cγ, ATP 100 μM, 30 min room temperature, time-resolved fluorometry
T1 construct: A fusion protein containing the intracellular domain (amino acids 793 to 1357) of the KDR and N-terminally tagged to GST; made in house; host or cells: Sf9 insect cells (baculovirus, pDEST20) for GST-KDR-cyt; E. coli BL21 (pGEX-4T-1) for GST-PLCγ
T1 sequence (P35968 794-1356 limits assumed): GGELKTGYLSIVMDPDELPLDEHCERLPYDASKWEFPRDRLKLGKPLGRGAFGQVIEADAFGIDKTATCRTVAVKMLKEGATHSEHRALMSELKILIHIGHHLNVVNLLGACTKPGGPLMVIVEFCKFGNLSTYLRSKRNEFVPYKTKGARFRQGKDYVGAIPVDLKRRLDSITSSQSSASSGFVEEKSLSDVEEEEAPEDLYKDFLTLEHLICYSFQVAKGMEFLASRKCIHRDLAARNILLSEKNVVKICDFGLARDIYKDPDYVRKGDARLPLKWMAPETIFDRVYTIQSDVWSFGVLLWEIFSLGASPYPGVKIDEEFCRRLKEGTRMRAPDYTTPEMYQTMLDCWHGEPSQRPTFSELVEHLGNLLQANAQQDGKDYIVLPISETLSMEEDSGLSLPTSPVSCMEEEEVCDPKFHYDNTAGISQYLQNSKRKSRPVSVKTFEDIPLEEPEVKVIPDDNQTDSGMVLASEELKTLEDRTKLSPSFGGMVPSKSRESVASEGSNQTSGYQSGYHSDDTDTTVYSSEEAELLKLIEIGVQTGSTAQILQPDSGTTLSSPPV
Experimental: The intracellular domain of the KDR receptor was used in the in vitro KDR assay. This domain contains the tyrosine kinase domain of KDR, and when expressed in Sf9 cells, this domain is constitutively active i.e. the kinase domain is phosphorylated on tyrosine residues.
The compounds to be tested were dissolved in DMSO at 10 mM, stored at −20° C. and protected from light. The maximum concentration of DMSO in the in vitro assay was 0.1%. Control samples received the same concentration of solvent as the samples treated with the test compounds.
For the kinase assays, black 96 wells MaxiSorp microtiter plates were coated by an overnight incubation with 100 μl/well of a 2.5 μg/ml solution of phospholipase Cγ in TBS buffer (40 mM Tris-HCl, pH 7.4, 20 mM Mg(C2H3O2)2, 0.02% NaN3) at 4° C. The plates were washed 3 times with TBS buffer containing 0.1% Tween-20, and the residual binding sites were masked by incubation with 1% BSA in TBS buffer containing 0.1% Tween-20 for 1 h. The plates were washed again and the test compounds were added at final concentrations up to 10 μM, together with ATP at the final concentration of 100 μM in 50 μl TBS buffer/well. Then, 50 μl of the human intracellular domain of KDR (VEGF Receptor-2) finally diluted 3000-3500 fold were added and were incubated for 30 min at room temperature. The plates were washed and 100 μl of the Europium labelled PY-20 anti-phosphotyrosine antibody (Wallac, FIN) were incubated in each well at the concentration of approximately 114 ng/ml for 2 h. Then, the plates were washed and 100 μl of enhancer solution (Wallac, FIN) were incubated in each well for 5 min in the dark. The plates were read in a Victor 1420 multilabel counter, using a Europium protocol for time-resolved fluorometry (Wallac, FIN): excitation 340 nm, emission 615 nm, sample pulse cycle 400 μs. Fluorescence was measured for 400 μs between flashes after a delay time of 400 μs. The background measured in the absence of enzyme was subtracted from all samples. The molar concentrations that inhibited 50% of the maximal enzymatic activity (IC50) were calculated from the dose-response curve, by fitting a straight line between the two concentrations immediately above and below the 50% inhibition point (i.e. by solving the equation y=a+bx).

Question: How did the IC50 turn out when O=C(NOCc1cccc(OC(F)(F)F)c1)c1ccccc1NCc1ccncc1 [Compound 67, 2-[(Pyridin-4-ylmethyl)-amino]-N-(3-trifluoromethoxy-benzyloxy)-benzamide] was run?
Answer: The IC50 was 50.1 nM.

Question: How did the IC50 turn out when O=C(NOCc1ccc(OC(F)(F)F)cc1)c1ccccc1NCc1ccncc1 [Compound 68, 2-[(Pyridin-4-ylmethyl)-amino]-N-(4-trifluoromethoxy-benzyloxy)-benzamide] was run?
Answer: Its IC50 is 79.4 nM.

Question: With O=C(NOCc1ccccc1OC(F)F)c1ccccc1NCc1ccncc1 [Compound 69, N-(2-Difluoromethoxy-benzyloxy)-2-[(pyridin-4-ylmethyl)-amino]-benzamide] as the compound, how does the IC50 read?
Answer: The IC50 was 6.31 nM.

Question: How did the IC50 turn out when O=C(NOCc1ccccc1SC(F)(F)F)c1ccccc1NCc1ccncc1 [Compound 70, 2-[(Pyridin-4-ylmethyl)-amino]-N-(2-trifluoromethylsulfanyl-benzyloxy)-benzamide] was run?
Answer: The IC50 was 31.6 nM.

Question: O=C(NOCc1cc2c(cc1Cl)OCO2)c1ccccc1NCc1ccncc1 [Compound 71, N-(6-Chloro-benzo[1,3]dioxol-5-ylmethoxy)-2-[(pyridin-4-ylmethyl)amino]-benzamide] was tested. Which IC50 did it give?
Answer: The IC50 was 25.1 nM.

Question: With O=C(NOCc1ccc2c(c1)OCO2)c1ccccc1NCc1ccncc1 [Compound 72, N-(Benzo[1,3]-dioxol-5-ylmethoxy)-2-[(pyridin-4-ylmethyl)-amino]-benzamide] as the compound, how does the IC50 read?
Answer: The IC50 was 39.8 nM.

Question: Which IC50 does the source give for O=C(NOCc1ccc2c(c1)CCC2)c1ccccc1NCc1ccncc1 [Compound 73, N-(Indan-5-ylmethoxy)-2-[(pyridin-4-ylmethyl)-amino]-benzamide] here?
Answer: The IC50 was 15.8 nM.

Question: N#Cc1cccc(CONC(=O)c2ccccc2NCc2ccncc2)c1 [Compound 74, N-(3-Cyano-benzyloxy)-2-[(pyridin-4-ylmethyl)-amino]-benzamide] was tested. Which IC50 did it give?
Answer: Its IC50 is 63.1 nM.

Question: How did the IC50 turn out when N#Cc1ccccc1CONC(=O)c1ccccc1NCc1ccncc1 [Compound 75, N-(2-Cyano-benzyloxy)-2-[(pyridin-4-ylmethyl)-amino]-benzamide] was run?
Answer: Its IC50 is 63.1 nM.

Question: With N#Cc1ccc(CONC(=O)c2ccccc2NCc2ccncc2)c(F)c1 [Compound 76, N-(4-Cyano-2-fluoro-benzyloxy)-2-[(pyridin-4-ylmethyl)-amino]-benzamide] as the compound, how does the IC50 read?
Answer: Its IC50 is 25.1 nM.

Question: How did the IC50 turn out when N#Cc1ccc(CONC(=O)c2ccccc2NCc2ccncc2)cc1Br [Compound 77, N-(3-Bromo-4-cyano-benzyloxy)-2-[(pyridin-4-ylmethyl)-amino]-benzamide] was run?
Answer: The IC50 was 39.8 nM.

Question: N#Cc1ccc(CONC(=O)c2ccccc2NCc2ccncc2)c(Cl)c1 [Compound 78, N-(2-Chloro-4-cyano-benzyloxy)-2-[(pyridin-4-ylmethyl)-amino]-benzamide] was tested. Which IC50 did it give?
Answer: Its IC50 is 15.8 nM.

Question: How did the IC50 turn out when COc1cc(C#N)ccc1CONC(=O)c1ccccc1NCc1ccncc1 [Compound 79, N-(4-Cyano-2-methoxy-benzyloxy)-2-[(pyridin-4-ylmethyl)-amino]-benzamide] was run?
Answer: Its IC50 is 39.8 nM.

Question: N#Cc1ccc(CONC(=O)c2ccccc2NCc2ccncc2)c(I)c1 [Compound 80, N-(4-Cyano-2-iodo-benzyloxy)-2-[(pyridin-4-ylmethyl)-amino]-benzamide] was tested. Which IC50 did it give?
Answer: Its IC50 is 39.8 nM.

Question: For N#Cc1ccc(Br)c(CONC(=O)c2ccccc2NCc2ccncc2)c1 [Compound 81, N-(2-Bromo-5-cyano-benzyloxy)-2-[(pyridin-4-ylmethyl)-amino]-benzamide], which IC50 is on record?
Answer: Its IC50 is 50.1 nM.

Question: How did the IC50 turn out when N#Cc1ccc(CONC(=O)c2ccccc2NCc2ccncc2)c2ccccc12 [Compound 82, N-(4-Cyano-naphthalen-1-ylmethoxy)-2-[(pyridin-4-ylmethyl)-amino]-benzamide] was run?
Answer: The IC50 was 15.8 nM.

Question: With Nc1ccccc1CONC(=O)c1ccccc1NCc1ccncc1 [Compound 85, N-(2-Amino-benzyloxy)-2-[(pyridin-4-ylmethyl)-amino]-benzamide] as the compound, how does the IC50 read?
Answer: The IC50 was 50.1 nM.

Question: For COC(=O)c1cccc(CONC(=O)c2ccccc2NCc2ccncc2)c1 [Compound 87, 3-{2-[(Pyridin-4-ylmethyl)-amino]-benzoylaminooxymethyl}-benzoic acid methyl ester], which IC50 is on record?
Answer: The IC50 was 100 nM.

Question: With CN(C)CCNC(=O)c1cccc(CONC(=O)c2ccccc2NCc2ccncc2)c1 [Compound 96, N-[3-(2-dimethylaminoethylcarbamoyl)-benzyloxy]-2-[(pyridin-4-ylmethyl)-amino]-benzamide] as the compound, how does the IC50 read?
Answer: The IC50 was 79.4 nM.

Question: Which IC50 does the source give for O=C(NOCc1ccccc1-c1cccs1)c1ccccc1NCc1ccncc1 [Compound 98, 2-[(Pyridin-4-ylmethyl)-amino]-N-(2-thiophen-2-yl-benzyloxy)-benzamide] here?
Answer: Its IC50 is 39.8 nM.

Question: For O=C(NOCc1cccc2ccccc12)c1ccccc1NCc1ccncc1 [Compound 100, N-(Naphthalen-1-ylmethoxy)-2-[(pyridin-4-ylmethyl)-amino]-benzamide], which IC50 is on record?
Answer: The IC50 was 63.1 nM.

Question: With O=C(NOCc1cc(Cl)nc(Cl)c1)c1ccccc1NCc1ccncc1 [Compound 104, N-(2,6-Dichloro-pyridin-4-ylmethoxy)-2-[(pyridin-4-ylmethyl)-amino]-benzamide] as the compound, how does the IC50 read?
Answer: Its IC50 is 63.1 nM.

Question: How did the IC50 turn out when O=C(NOCc1cnc(Cl)s1)c1ccccc1NCc1ccncc1 [Compound 106, N-(2-Chloro-thiazol-5-ylmethoxy)-2-[(pyridin-4-ylmethyl)-amino]-benzamide] was run?
Answer: The IC50 was 50.1 nM.

Question: O=C(NOCc1csc(-c2ccccc2)n1)c1ccccc1NCc1ccncc1 [Compound 107, N-(2-Phenyl-thiazol-4-ylmethoxy)-2-[(pyridin-4-ylmethyl)-amino]-benzamide] was tested. Which IC50 did it give?
Answer: Its IC50 is 100 nM.

Question: Which IC50 does the source give for CCCc1cc(CONC(=O)c2ccccc2NCc2ccncc2)on1 [Compound 110, N-(3-Propyl-isoxazol-5-ylmethoxy)-2-[(pyridin-4-ylmethyl)-amino]-benzamide] here?
Answer: Its IC50 is 79.4 nM.

Question: How did the IC50 turn out when O=C(NOCc1ccc(Cl)s1)c1ccccc1NCc1ccncc1 [Compound 111, N-(5-Chloro-thiophen-2-ylmethoxy)-2-[(pyridin-4-ylmethyl)-amino]-benzamide] was run?
Answer: Its IC50 is 79.4 nM.

Question: O=C(NOCC1CCCC1)c1ccccc1NCc1ccncc1 [Compound 113, N-Cyclopentylmethoxy-2-[(pyridin-4-ylmethyl)-amino]-benzamide] was tested. Which IC50 did it give?
Answer: The IC50 was 2.51 nM.

Question: O=C(NOCC1CC1)c1ccccc1NCc1ccncc1 [Compound 114, N-Cyclopropylmethoxy-2-[(pyridin-4-ylmethyl)-amino]-benzamide] was tested. Which IC50 did it give?
Answer: The IC50 was 100 nM.

Question: Which IC50 does the source give for CC(C)(C)CONC(=O)c1ccccc1NCc1ccncc1 [Compound 116, N-(2,2-Dimethyl-propoxy)-2-[(pyridin-4-ylmethyl)-amino]-benzamide] here?
Answer: The IC50 was 39.8 nM.

Question: CCC(CC)CONC(=O)c1ccccc1NCc1ccncc1 [Compound 117, N-(2-Ethyl-butoxy)-2-[(pyridin-4-ylmethyl)-amino]-benzamide] was tested. Which IC50 did it give?
Answer: Its IC50 is 12.6 nM.

Question: For CC(C)CCONC(=O)c1ccccc1NCc1ccncc1 [Compound 118, N-(3-Methyl-butoxy)-2-[(pyridin-4-ylmethyl)-amino]-benzamide], which IC50 is on record?
Answer: Its IC50 is 15.8 nM.

Question: O=C(NOCC1CCC1)c1ccccc1NCc1ccncc1 [Compound 119, N-Cyclobutylmethoxy-2-[(pyridin-4-ylmethyl)-amino]-benzamide] was tested. Which IC50 did it give?
Answer: The IC50 was 15.8 nM.

Question: For O=C(NOCC1CCCCC1)c1ccccc1NCc1ccncc1 [Compound 120, N-Cyclohexylmethoxy-2-[(pyridin-4-ylmethyl)-amino]-benzamide], which IC50 is on record?
Answer: Its IC50 is 39.8 nM.

Question: Which IC50 does the source give for O=C(NOCC1CCCCCC1)c1ccccc1NCc1ccncc1 [Compound 121, N-Cycloheptylmethoxy-2-[(pyridin-4-ylmethyl)-amino]-benzamide] here?
Answer: Its IC50 is 50.1 nM.

Question: With O=C(NOCC1CCCCCCC1)c1ccccc1NCc1ccncc1 [Compound 122, N-Cyclooctylmethoxy-2-[(pyridin-4-ylmethyl)-amino]-benzamide] as the compound, how does the IC50 read?
Answer: The IC50 was 7.94 nM.

Question: With CC(ONC(=O)c1ccccc1NCc1ccncc1)C1CCCC1 (stereo not shown) [Compound 123, N-(1-Cyclopentyl-ethoxy)-2-[(pyridin-4-ylmethyl)-amino]-benzamide] as the compound, how does the IC50 read?
Answer: The IC50 was 31.6 nM.

Question: For O=C(NOC1CCCCC1)c1ccccc1NCc1ccncc1 [Compound 124, N-Cyclohexyloxy-2-[(pyridin-4-ylmethyl)-amino]-benzamide], which IC50 is on record?
Answer: The IC50 was 63.1 nM.

Question: For O=C(NOCCC1CC1)c1ccccc1NCc1ccncc1 [Compound 125, N-(2-Cyclopropyl-ethoxy)-2-[(pyridin-4-ylmethyl)-amino]-benzamide], which IC50 is on record?
Answer: Its IC50 is 39.8 nM.

Question: How did the IC50 turn out when O=C(NOCCC1CCCC1)c1ccccc1NCc1ccncc1 [Compound 126, N-(2-Cyclopentyl-ethoxy)-2-[(pyridin-4-ylmethyl)-amino]-benzamide] was run?
Answer: Its IC50 is 7.94 nM.

Question: With O=C(NOCCCC1CCCC1)c1ccccc1NCc1ccncc1 [Compound 127, N-(3-Cyclopentyl-propoxy)-2-[(pyridin-4-ylmethyl)-amino]-benzamide] as the compound, how does the IC50 read?
Answer: Its IC50 is 15.8 nM.
